Values quoted from earlier work as cited in US6423697B1, “Intraoral topical anti-inflammatory treatment for relief of migraine, tension-type headache, post-traumatic headache, facial pain, and cervical-muscle spasm” (priority 1999, dated 2002).

What was measured:
[1] = oral medication

Compound	time to peak plasma levels (oral administration)	effectiveness for headache [1]	plasma half-life (in vivo)	time peak plasma levels are maintained (oral administration)
2-(3benzoxyphenyl)-propionic acid [Ketoprofen]	0.5 to 2 h			
CC(=O)Oc1ccccc1C(=O)O [Aspirin, salicylic acetate]	1 to 2 h	mildly effective	4.7 to 9 h	4 to 6 h
CC(C)Cc1ccc(C(C)C(=O)O)cc1 (centres unmarked) [Ibuprofen, 2-(p-Isobutylphenyl) propionic acid]	1 to 2 h	mildly effective		
COc1ccc2cc([C@H](C)C(=O)O)ccc2c1 [Naproxen, 6-methoxy methyl-2-naphtalene acetic acid]		mildly effective		
